Measured values as given in US12358963B2, “Regenerative polypeptides and uses thereof” (Juvena Therapeutics, Inc., priority 2019, dated 2025).

Key:
Type in all cases: cell-based
human myoblast cells [1] = experiment: Human myoblast differentiation, percentage area of MyHC; details: Example 3, purified, 96 hours with daily media change; vehicle control 1.384
Experimental: (§1) FIG. 1A: The suspension CHO cells were transiently transfected with the IGF2-hFcm encoding plasmid. IGF2-hFcm was affinity-purified by Protein A membrane column. The purified IGF2-hFcm was added into the culture of human myoblast cells for 96 hours. Myosin heavy chain (MyHC) was immunostained and imaged by a fluorescence microscope.
as §1, with “The” for “FIG. 1A: The”, “IGF2-LhFc4” for “IGF2-hFcm”, “hours with daily media change.” for “hours.”
The suspension CHO cells were transiently transfected with the HSA-L-IGF2R61A encoding plasmid. HSA-L-IGF2R61A was affinity-purified by Protein A membrane column. […] Myosin heavy chain (MyHC) was immunostained and imaged by a fluorescence microscope.
Suspension CHO cells were transiently transfected with the IGF2-hFcm encoding plasmid. […] After quantification of the stained MyHC, the percentage area of MyHC was calculated as the percent of pixels within the field that are illuminated above background in the stained channel. […] Significance was determined by a p-value less than 0.05 by the one-way ANOVA Tukey Honest Significant Difference test.

Mouse myoblasts = experiment: Mouse myoblast fusion index with sodium butyrate; details: 48h, vehicle 7.56
Experimental: Mouse myoblasts were treated with PBS or sodium butyrate at concentrations 0.1 nM, 1 nM, and 10 nM. Myoblasts were cultured for 48 hours, with fresh media added every 24 hours. Cells were pulsed for 2-5 hours with EdU (30 uM), ethanol fixed, stained with Hoescht 3342, immunostained for proliferation—as measured by the percent of cells staining positive for EdU (% EdU)—, and immunostained for differentiation—as measured by the increase in cellular area staining positive for embryonic myosin heavy chain (% eMyHC) relative to the negative controls, which received media and vehicle only. […] Significance was determined by a p-value less than 0.05 by the one-way ANOVA Tukey Honest Significant Difference test.
FIG. 2A: Bar graph of fusion index in response to sodium butyrate (NaBut) compared to vehicle. Myoblast were cultured 48h in the presence of NaBut at indicated dose. Fresh media and NaBut were added every 24h. Mean∓S.D. Table quantitation of fusion index and p-values also shown. (*p<0.05 by Student's Two-tailed T-test, n=3-5)

human myoblast cells [2] = experiment: Human myoblast differentiation, % area eMyHC (IGF2, sodium butyrate); details: 96h, vehicle 6.813
Experimental: Fresh media was added every 24 hours. […] The total area of eMyHc positive cells was analyzed, and treated cells were compared to cells treated with the vehicle alone. […] Myoblast were cultured 96h in the presence of BMP7 at indicated dose. Fresh media and BMP7 was added every 24h. Mean∓S.D. (*p<0.05 by One-Way Anova Tukey Honest Significant Difference, n=2-12) […] Fresh media was added every 24 hours. […] FIG. 3A: Bar graph of % Area eMyHC+ age human myoblast (person) in response to indicated treatment compared to Vehicle (vehicle). Myoblast were cultured 96h in the presence of factors at indicated dose. Fresh media and factors were added every 24h. Mean∓S.D. Significant p-values (Vehicle IGF2: 0.03 ug/mL: 1.42E-08, Vehicle NaBut: 1 nM IGF2: 0.03 ug/mL: 1.79E-11, Vehicle NaBut: 10 nM IGF2: 0.03 ug/mL: 1.80E-11, Vehicle NaBut: 100 nM IGF2: 0.03 ug/mL: 1.79E-11). […] Myoblast were cultured 96h in the presence of BMP7 at indicated dose. Mean±S.D. Significant p-values (IGF2 NaBut: 1 nM IGF2: 0.03 ug/mL: 1.88E-3, Vehicle NaBut: 10 nM IGF2: 0.03 ug/mL: 4.80E-3, Vehicle NaBut: 100 nM IGF2: 0.03 ug/mL: 1.87E-3) (*p<0.05 by One-Way ANOVA Tukey Honest Significant Difference, n=2-12)

DM1 human myoblast = experiment: Gene expression fold change in DM1 human myoblast; details: 48h; BMP7 50 ng/mL, Butyrate 100 nM, IGF2 200 ng/mL; FM 1.000
mouse myoblast cells = experiment: Mouse myoblast proliferation assay (EdU); details: for % EdU: vehicle 3.14
Experimental: FIG. 5A) Bar graph quantitation of % EdU+ mouse myoblast in response to BMP7. Myoblast were cultured 48h in the presence of BMP7 at indicated dose. Fresh media and BMP7 was added every 24h, followed by 2 hour EdU pulse and fixation. Mean∓S.D. Significant p-values (Vehicle˜BMP7 0.025 ug/mL: 1.21E-07, Vehicle˜BMP7 0.075 ug/mL: 8.05E-07, Vehicle˜BMP7 0.2255 ug/mL: 3.37E-03, Vehicle˜BMP7 0.9 ug/mL: 4.99E-02). FIG. 5B) Bar graph quantitation of % EdU+ human myoblast (person) in response to BMP7. Myoblast were cultured 72h in the presence of BMP7 at indicated dose. Cells were pulsed with EdU for 4 hours before fixation. Mean∓S.D. Significant p-values (Vehicle˜BMP7 1.56 ng/mL: 0.04). (*p<0.05 by Welch's One-Tailed T-test, n=2)
FIG. 6A) Bar graph of % EdU+ mouse myoblast cells compared to vehicle. Mouse myoblast were cultured 48h in the presence of indicated factors, followed by a 2 hour EdU pulse prior to fixation. Mean∓S.D. Significant p-values (FM˜BMP7: 0.008 ug/mL: 3.17E-02, FM˜Leucine: 300 uM BMP7: 0.008 ug/mL: 2.77E-03, FM˜Leucine: 100 uM BMP7: 0.008 ug/mL: 3.72E-05, FM˜Leucine: 900 uM BMP7: 0.008 ug/mL: 2.52E-03). (*p<0.05 by One-Way ANOVA Tukey Honest Significant Difference, n=2-6)
FIG. 7A: Bar graph of % EdU+ mouse myoblast cells compared to vehicle. Mouse myoblast were cultured 48h in the presence of indicated factors. EdU pulse and fixation. Mean∓S.D. (*p<0.05 by Student's One-Tailed T-Test of increased activity, n=2-6)
FIG. 10A) The suspension CHO cells were transiently transfected with either the empty control plasmid or the FGF17-hFcm encoding plasmid. After four days, the culture supernatants were collected and added into the culture of mouse myoblast cells for 48 hours, followed by a 2 hour EdU pulse prior to fixation. […] FIG. 10B) The suspension CHO cells were transiently transfected with the FGF17-hFcm encoding plasmid. After four days, the culture supernatants were collected and FGF17-hFcm was affinity-purified by Protein A membrane column. The purified FGF17-hFcm was added into the culture of mouse myoblast cells for 48 hours, followed by a 2 hour EdU pulse and fixation.
(§2) FIG. 11A: SDS-PAGE of culture supernatants from CHO cells transiently transfected with FGF17-hFcm or its mutants encoding plasmids (FGF17d181-216-hFcm, FGF17d204-216-hFcm, FGF17R204QK207Q-hFcm). The expressed FGF17-hFcm proteins and the mutant proteins were indicated by the white arrowheads. FIG. 11B) The culture supernatants from CHO cells transiently transfected with different FGF17 encoding plasmids were added into the culture of mouse myoblast cells for 48 hours followed by 2 hour EdU pulse and fixation.
as §2, with “12A)” for “11A:”, “(FGF17d197-216-hFcm, FGF17K191AK193AS200A-hFcm).” for “(FGF17d181-216-hFcm, FGF17d204-216-hFcm, FGF17R204QK207Q-hFcm).”, “12B)” for “11B)”, “hours,” for “hours”
FIG. 14A: Bar graph of % EdU+ mouse myoblast cells compared to vehicle. Myoblast were cultured 48h in the presence of indicated factors. […] Mean∓S.D. Table quantitation of % EdU and p-values (*p<0.05 by One-Way ANOVA Tukey Honest Significant Difference, n=2-6)
FIG. 15A: Bar graph of % EdU+ mouse myoblast cells compared to vehicle. […] Mean∓S.D. Table quantitation of % EdU and p-values shown. […]

Molecule: IGF2-hFc4: IGF2 fused to hFc4, human IgG4 Fc with S228P point mutation
- % MyHC (human myoblast cells [1]): 6.901%

Molecule: CCCC(=O)[O-].[Na+] [NaBut, sodium butyrate]
- Fusion Index (nuclei/myotube) (Mouse myoblasts; 0.1 nM): 8.44 nuclei/myotube
- Fusion Index (nuclei/myotube) (Mouse myoblasts; 1 nM): 31.60 nuclei/myotube
- Fusion Index (nuclei/myotube) (Mouse myoblasts; 10 nM): 14.00 nuclei/myotube
- % eMyHC (human myoblast cells [2]; NaBut 1 nM): 2.321%
- % eMyHC (human myoblast cells [2]; NaBut 10 nM): 6.199%
- % eMyHC (human myoblast cells [2]; NaBut 100 nM): 8.341%
- MYF5 expression fold change compared to FM (DM1 human myoblast): 1.128
- MYOD1 expression fold change compared to FM (DM1 human myoblast): 1.095
- MYOG expression fold change compared to FM (DM1 human myoblast): 1.020

Molecule: Heparin [reference compound]
- % EdU (mouse myoblast cells; Heparin 0.5 ug/mL, 48h): 1.77%
- % EdU (mouse myoblast cells; Heparin 1 ug/mL, 48h): 3.01%
- % EdU (mouse myoblast cells; Heparin 2 ug/mL, 48h): 2.85%

Molecule: CC(C)C[C@H](N)C(=O)O [Leucine]
- Effect on BMP7 mitogenic activity (% EdU+) (mouse myoblast cells; Leucine 100, 300, 900 uM with BMP7 0.008 ug/mL, 48h): Enhances BMP7 Mitogenic Activity

Molecule: Hyaluronic Acid [Hyaluronic Acid (HA)]
- Effect on BMP7 mitogenic activity (% EdU+) (mouse myoblast cells; hyaluronic acid with BMP7, 48h): Enhances BMP7 Mitogenic Activity
